{"source": "patent US6613317B1", "about": "“Volatile attractants for diabrotica species” (priority 1988, dated 2003)", "key": {"D. barberi [1]": {"test_system": "D. barberi", "assay": "Sticky trap attraction in prairie habitat, Trelease Woods (Example 2)", "assay_type": "in vivo, Diabrotica barberi", "conditions": "August 11, 1987; 100 mg per trap; n = 4", "summary_of_the_method": "(§1)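 Lure-dosed cotton wicks (solids in acetone; untreated controls) on TangleTrap-coated cartons atop 1 m posts, four replicates 10 m apart in relict prairie, mid-August over two years. Read-out: mean beetles caught after 24-h; log-transformed ANOVA with Duncan's multiple range test.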"}, "D. cristata": {"test_system": "D. cristata", "assay": "Sticky trap attraction in prairie habitat, Trelease Woods (Example 2)", "assay_type": "in vivo, Diabrotica cristata", "conditions": "August 11, 1987; 100 mg per trap; n = 4", "summary_of_the_method": "as §1"}, "D. v. virgifera [2]": {"test_system": "D. v. virgifera", "assay": "Sticky trap attraction in prairie habitat, Trelease Woods (Example 2)", "assay_type": "in vivo, Diabrotica virgifera virgifera", "conditions": "August 11, 1987; 100 mg per trap; n = 4", "summary_of_the_method": "as §1"}, "D. u. howardi [3]": {"test_system": "D. u. howardi", "assay": "Sticky trap attraction in prairie habitat, Trelease Woods (Example 2)", "assay_type": "in vivo, Diabrotica undecimpunctata howardi", "conditions": "August 11, 1987; 100 mg per trap; n = 4", "summary_of_the_method": "as §1"}, "D. barberi [4]": {"test_system": "D. barberi", "assay": "Sticky trap attraction along hybrid corn, Pomology South Farms (Example 2)", "assay_type": "in vivo, Diabrotica barberi", "conditions": "100 mg per trap, n = 4", "procedure": "(§2) The candidate lures in all experiments were purchased commercially and exceeded 98% purity. The test chemicals were applied by capillary micropipettes to cotton dental wicks which were attached to the tops of 1.0 liter cylindrical paper cartons covered with TangleTrap™ (Tanglefoot Co., Grand Rapids, Mich.). The sticky trap techniques used were as described in Example 1. Cinnamyl alcohol and para-methoxycinnamaldehyde, which are solids, were dissolved in glass-distilled acetone prior to dosing the cotton wicks. All treatments were applied at a dosage of 100 mg per trap. 1,2,4-trimethoxybenzene, indole, and trans-cinnamaldehyde were mixed in a ratio of 1:1:1, by weight, immediately prior to dosing the cotton wicks. Control traps had untreated cotton wicks. Four replicates of treated and untreated traps were randomly positioned 10 meters apart on top of 1 m high posts along the border of a eight foot wide strip cut through the middle of a 4.05 ha relict prairie at Trelease Woods (ca. two miles northeast of Urbana, Ill.). The field consisted primarily of Andropogon gerardii Vitman (big bluestem) and a variety of composites. The tests were conducted in mid-August of two years and were timed to coincide with the presence of D. cristata and D. barberi adults in the flower heads of Canada thistle (Carduus arvensis Robson). In the second year, several new attractants of D. v. virgifera and D. barberi were tested in Trelease Woods and along the edge of a 0.8 ha field of hybrid corn located at the Pomology South Farms, Urbana, Ill. Attraction of Diabrotica species to the various lures was measured by the mean number of beetles caught after 24-h. On one date in late August of the first year, D. cristata and D. barberi were removed from the traps and sexed in the laboratory. The significance of treatments in all tests was determined by an analysis of variance and the individual means were separated by Duncan's multiple range test (Statistical Package for Social Science, Nie, et al., SPSS: statistical package for the social sciences, 2nd ed. McGraw-Hill, New York (1975). Data were logarithmically transformed for statistical analysis and the means and standard deviations are presented for the untransformed data."}, "D. v. virgifera [5]": {"test_system": "D. v. virgifera", "assay": "Sticky trap attraction along hybrid corn, Pomology South Farms (Example 2)", "assay_type": "in vivo, Diabrotica virgifera virgifera", "conditions": "100 mg per trap, n = 4", "procedure": "as §2"}, "D. u. howardi [6]": {"test_system": "D. u. howardi", "assay": "Sticky trap attraction along hybrid corn, Pomology South Farms (Example 2)", "assay_type": "in vivo, Diabrotica undecimpunctata howardi", "conditions": "100 mg per trap, n = 4", "procedure": "as §2"}, "[7]": {"test_system": "western corn rootworm (WCR) adults", "assay": "Sticky trap attraction in corn, estragole analogues (Example 3)", "assay_type": "in vivo, Diabrotica virgifera virgifera", "conditions": "for Mean number of WCR adults per sticky trap (±standard deviation) after 24 hours / Mean number of WCR (±standard deviation) per sticky trap after 24 hours: 100 mg per trap, n = 4", "summary_of_the_method": "(§3)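 Cotton wicks dosed with 100 mg or 100 μL attractant per trap on TangleTrap-coated cartons, four replicates 10 m apart on 1 m posts at field edges of hybrid or sweet corn. Mean beetles caught after ~24 h; log-transformed ANOVA with Duncan's test, P=0.05.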"}, "[8]": {"test_system": "southern corn rootworm (SCR) adults", "assay": "Sticky trap attraction in corn, estragole analogues (Example 3)", "assay_type": "in vivo, Diabrotica undecimpunctata howardi", "conditions": "100 mg per trap, n = 4", "summary_of_the_method": "as §3"}, "[9]": {"test_system": "northern corn rootworm (NCR) adults", "assay": "Sticky trap attraction in corn, estragole analogues (Example 3)", "assay_type": "in vivo, Diabrotica barberi", "conditions": "100 mg per trap, n = 4", "procedure": "(§4) Test chemicals were applied by capillary micropipettes to cotton dental wicks that were attached to tops of 1.0 liter cylindrical paper cartons covered with TangleTrap™, Grand Rapids, Mich. The trapping techniques used were as previously described in Example 1. Cinnamyl alcohol, 4-methoxycinnamaldehyde, cinnamyl acetate, and 4-(4′methoxyphenyl)-3-butene-2-one which are solids at ambient temperature were prepared as standard w/v solutions in acetone prior to dosing the cotton wicks. All treatments were made at a dosage of 100 mg or 100 μL of attractant per trap. Control traps had untreated wicks. Four replicates of treated and untreated traps were positioned randomly 10 meters apart on top of 1 m high posts along the edges of 25-50 ha. fields of hybrid corn (Zea mays), infested with adult NCR, SCR, and WCR beetles. Several experiments detailed in the Tables were made in a 0.4 ha plot of sweet corn (Illini X-tra Sweet).\n(§5) Attraction of Diabrotica species adults of the sticky traps was measured by the mean number of beetles caught after 1 day (ca. 24 hours) exposure. The significance of the treatments was determined by analysis of variance and the individual means were separated by Duncan's multiple range test (Statistical Package for the Social Sciences, Nie, et al., 2nd. ed. McGraw-Hill, New York (1975). The data was logarithmically transformed for statistical analysis. Means and standard deviations are presented for the untransformed data. Significance levels were set at P=0.05 for all statistical analyses."}, "[10]": {"test_system": "northern corn rootworm (NCR)", "assay": "Sticky trap attraction in corn, phenylethanol analogues (Example 6)", "assay_type": "in vivo, Diabrotica barberi", "conditions": "100 mg per trap, four replicates, 24 hour", "procedure": "as §4, with “chemicals (purchased from Aldrich Chemical Co.; Milwaukee, Wis.)” for “chemicals”, “Unless otherwise indicated, all” for “Cinnamyl alcohol, 4-methoxycinnamaldehyde, cinnamyl acetate, and 4-(4′methoxyphenyl)-3-butene-2-one which are solids at ambient temperature were prepared as standard w/v solutions in acetone prior to dosing the cotton wicks. All”\nas §5"}, "[11]": {"test_system": "western corn rootworm (WCR)", "assay": "Sticky trap attraction in corn, phenylethanol analogues (Example 6)", "assay_type": "in vivo, Diabrotica virgifera virgifera", "conditions": "100 mg per trap, four replicates, 24 hour", "procedure": "as §4, with “chemicals (purchased from Aldrich Chemical Co.; Milwaukee, Wis.)” for “chemicals”, “Unless otherwise indicated, all” for “Cinnamyl alcohol, 4-methoxycinnamaldehyde, cinnamyl acetate, and 4-(4′methoxyphenyl)-3-butene-2-one which are solids at ambient temperature were prepared as standard w/v solutions in acetone prior to dosing the cotton wicks. All”\nas §5"}, "WCR": {"test_system": "WCR", "conditions": "in vivo; cited from earlier work"}}, "note": "Marks after values point to notes of the source that are not given here.", "data": [{"smiles": "COc1ccc(C=CC=O)cc1", "note": "[XI, 4-methoxycinnamaldehyde]", "values": [{"measurement": "Mean number of D. barberi per day (±standard deviation)", "setting": "D. barberi [1]", "result": "1.0 ± 0.8^a per day"}, {"measurement": "Mean number of D. cristata per day (±standard deviation)", "setting": "D. cristata", "result": "11.0 ± 6.7^b per day"}, {"measurement": "Mean number of D. v. virgifera per day (±standard deviation)", "setting": "D. v. virgifera [2]", "result": "8.5 ± 5.3^b per day"}, {"measurement": "Mean number of D. u. howardi per day (±standard deviation)", "setting": "D. u. howardi [3]", "result": "0.3 ± 0.5^a per day"}, {"measurement": "Mean number of D. barberi per stick trap per day (±standard deviation) in corn", "setting": "D. barberi [4]; August 7", "result": "0.3 ± 0.5^a per stick trap per day"}, {"measurement": "Mean number of D. barberi per stick trap per day (±standard deviation) in corn", "setting": "D. barberi [4]; August 18", "result": "1.0 ± 0.8^a per stick trap per day"}, {"measurement": "Mean number of D. v. virgifera per stick trap per day (±standard deviation) in corn", "setting": "D. v. virgifera [5]; August 7", "result": "375.0 ± 50.0^d per stick trap per day"}, {"measurement": "Mean number of D. v. virgifera per stick trap per day (±standard deviation) in corn", "setting": "D. v. virgifera [5]; August 18", "result": "178.8 ± 32.0^c per stick trap per day"}, {"measurement": "Mean number of D. u. howardi per stick trap per day (±standard deviation) in corn", "setting": "D. u. howardi [6]; August 7", "result": "1.5 ± 2.4^a per stick trap per day"}, {"measurement": "Mean number of D. u. howardi per stick trap per day (±standard deviation) in corn", "setting": "D. u. howardi [6]; August 18", "result": "0.0^a per stick trap per day"}, {"measurement": "period over which treated wicks remained highly attractive to WCR", "setting": "[7]; 100 mg on wick, transferred daily to fresh traps, August sunlight, two heavy rainstorms", "result": "≥ 16", "unit": "days"}, {"measurement": "Mean number of WCR adults per sticky trap (±standard deviation) after 24 hours", "setting": "[7]; August 4 second year", "result": "204.7 ± 34.6^e per sticky trap"}, {"measurement": "Mean number of WCR adults per sticky trap (±standard deviation) after 24 hours", "setting": "[7]; August 5 first year", "result": "143.7 ± 75.3^e per sticky trap"}, {"measurement": "Mean number of WCR (±standard deviation) per sticky trap after 24 hours", "setting": "[7]; August 7 (Table 11)", "result": "375.0 ± 50.0^c per sticky trap"}, {"measurement": "Mean number of WCR (±standard deviation) per sticky trap after 24 hours", "setting": "[7]; August 18 (Table 11)", "result": "178.7 ± 31.9^b per sticky trap"}, {"measurement": "Mean number of WCR adults per sticky trap (±standard deviation) after 24 hours", "setting": "[7]; September 11", "result": "22.2 ± 23.1^b per sticky trap"}, {"measurement": "effectiveness relative to previously described WCR attractants (indole, estragole)", "setting": "[7]; by LR", "result": "about 100 fold"}, {"measurement": "limit of response (LR) for attraction of WCR adults in corn", "setting": "[7]; on cotton wicks, logarithmically decreasing amounts", "result": "~0.03", "unit": "mg"}, {"measurement": "Mean number of SCR adults per sticky trap (±standard deviation) after 24 hours", "setting": "[8]; August 4 second year", "result": "9.0 ± 6.5^b per sticky trap"}, {"measurement": "Mean number of SCR adults per sticky trap (±standard deviation) after 24 hours", "setting": "[8]; August 5 first year", "result": "42.7 ± 27.6^b per sticky trap"}, {"measurement": "Mean number of SCR (±standard deviation) per sticky trap after 24 hours", "setting": "[8]; August 7 (Table 11)", "result": "1.5 ± 2.4^a per sticky trap"}, {"measurement": "Mean number of SCR (±standard deviation) per sticky trap after 24 hours", "setting": "[8]; August 18 (Table 11)", "result": "0.0^a per sticky trap"}, {"measurement": "Mean number of SCR adults per sticky trap (±standard deviation) after 24 hours", "setting": "[8]; September 11", "result": "1.5 ± 1.3^ab per sticky trap"}, {"measurement": "Mean number of NCR (±standard deviation) per sticky trap after 24 hours", "setting": "[9]; August 7 (Table 11)", "result": "0.0^a per sticky trap"}, {"measurement": "Mean number of NCR (±standard deviation) per sticky trap after 24 hours", "setting": "[9]; August 18 (Table 11)", "result": "1.0 ± 0.8^a per sticky trap"}, {"measurement": "Mean number of NCR per trap (± standard deviation)", "setting": "[10]; Table 15", "result": "6.4 ± 4.9", "unit": "a per trap"}, {"measurement": "Mean number of NCR per trap (± standard deviation)", "setting": "[10]; Table 17", "result": "2.5 ± 1.9", "unit": "a per trap"}, {"measurement": "Mean number of WCR per trap (±standard deviation)", "setting": "[11]; Table 15", "result": "567.5 ± 111.6", "unit": "b per trap"}, {"measurement": "Mean number of WCR per trap (± standard deviation), column WCW", "setting": "[11]; Table 17", "result": "360.2 ± 181.3", "unit": "c per trap"}, {"measurement": "LR for WCR, most effective volatile attractants yet identified", "setting": "WCR", "result": 0.03, "unit": "mg"}]}]}
